In patent publication US6127372A, “Sulfonamide inhibitors of aspartyl protease” (Vertex Pharmaceuticals, Incorporated, priority 1996, dated 2000) one finds Ki data, which are given here for 48 compounds.

Structures are written as SMILES. Bounds are passed on as bounds.

One assay concerns the target HIV-1 protease (Human immunodeficiency virus type 1 group M subtype B, UniProt P04585). Briefly: Inhibition constants against HIV-1 protease, method of Pennington et al. It is filed as biochemical.
Conditions: not given
On to `COc1ccc(S(=O)(=O)N(CC2CCCC2)C[C@@H](O)CN(CCc2ccccc2)C(=O)Oc2ccccc2)cc1` [Compound 1022], for which affinity was put at a Ki of 170 nM.

Still in this assay, the particulars now being: HIV-1 protease; method of Pennington et al.; read-out: Ki.
In the case of `COc1ccc(S(=O)(=O)N(CC(O)CN2CC(c3ccccc3)c3ccccc3C2=O)CC2CCCC2)cc1` (stereo not drawn) [Compound 1048], the Ki (as a rule, the dissociation constant of the complex between target and ligand, obtained from inhibition or displacement) was determined as 3300 nM.

With `Nc1ccc(S(=O)(=O)N(CC2CCCC2)C[C@@H](O)CN(CCc2ccccc2)C(=O)O[C@H]2CCOC2)cc1` [Compound 1008], the Ki came out at 260 nM.

Turning to `COc1ccc(S(=O)(=O)N(CC(C)C)C[C@H](O)CCN(CC2CCCC2)C(=O)O[C@H]2CCOC2)cc1` [Compound 1040], the Ki is over 10000 nM.

As to `C=CCOC(=O)N(CCc1ccccc1)C[C@H](O)CN(CC1CCCC1)S(=O)(=O)c1ccc(OC)cc1` [Compound 1021], the Ki is 70 nM.

On to `COc1ccc(S(=O)(=O)N(CC(C)C)C[C@@H](O)CCN(CCc2ccccc2)C(=O)OC2COC3OCCC23)cc1` (stereo partly drawn) [Compound 1036], for which the Ki turned out to be 8000 nM.

As to `CC(C)CN(C[C@@H](O)CN(CCc1ccccc1)C(=O)O[C@H]1CCOC1)S(=O)(=O)c1cccc(N)c1` [Compound 1012], the Ki was 200 nM.

Regarding `Nc1cccc(S(=O)(=O)N(CC2CCCC2)C[C@@H](O)CN(CCc2ccccc2)C(=O)OC2COCOC2)c1` [Compound 1014], the Ki was found to be 130 nM.

As to `COc1ccc(S(=O)(=O)N(CC(C)C)C[C@@H](O)CC(Cc2ccccc2)C(=O)N[C@H]2c3ccccc3C[C@H]2O)cc1` (stereo partly drawn) [LII], the Ki was 11 nM.

In the case of `Nc1cccc(S(=O)(=O)N(CC2CCCC2)C[C@@H](O)CN(CCc2ccccc2)C(=O)O[C@@H]2COC3OCCC32)c1` (stereo partly drawn) [Compound 1013], the Ki worked out at 50 nM.

Take `COc1ccc(S(=O)(=O)N(CC2CCCC2)C[C@@H](O)CN(CCc2ccc(O)c(O)c2)C(=O)O[C@H]2CCOC2)cc1` [Compound 1017]: the Ki stood at 110 nM.

For `Nc1cccc(S(=O)(=O)N(CC2CCCC2)C[C@@H](O)CN(CCc2ccccc2)C(=O)c2ccncc2)c1` [Compound 1045], the Ki is 14 nM.

Regarding `COc1ccc(S(=O)(=O)N(CC(O)CN2C(=O)OC[C@@H]2Cc2ccccc2)CC2CCCC2)cc1` (stereo partly drawn) [Compound 1046], the Ki is 1200 nM.

Regarding `COc1ccc(S(=O)(=O)N(CC(C)C)C[C@@H](O)CC(Cc2ccccc2)C(=O)NCC(C)C)cc1` (stereo partly drawn) [LI], the Ki was 5000 nM.

For the compound `COc1ccc(S(=O)(=O)N(CC[C@H](O)CN(CC(C)C)S(=O)(=O)c2ccc(OC)cc2)CC2CCCC2)cc1` [LVa], the Ki worked out at 167 nM.

On to `Nc1cccc(S(=O)(=O)N(CC2CCCC2)C[C@@H](O)CN(CCc2ccccc2)C(=O)c2cccnc2)c1` [Compound 1044], for which the Ki was determined as 220 nM.

Take `COc1ccc(S(=O)(=O)N(CC(O)CN(CCc2ccccc2)C(=O)[C@H](NC(=O)OCc2ccccc2)C(C)C)CC2CCCC2)cc1` (stereo partly drawn) [Compound 1027]: the Ki turned out to be 7 nM.

For the compound `CCCN(CC(=O)c1ccccc1)C[C@H](O)CN(CC1CCCC1)S(=O)(=O)c1ccc(OC)cc1` [Compound 1029], the Ki stood at 3500 nM.

As for `COc1ccc(S(=O)(=O)N(CC[C@H](O)CN(CC(C)C)S(=O)(=O)c2ccc(OC)cc2)CC(C)C)cc1` [XLIVa], the Ki was determined as 400 nM.

As for `COc1ccc(S(=O)(=O)N(CC2CCCC2)C[C@@H](O)CN(CCC2CCCCC2)C(=O)O[C@H]2CCOC2)cc1` [Compound 1011], the Ki came out at 110 nM.

For `COc1ccc(S(=O)(=O)N(CC2CCCC2)C[C@@H](O)CN(CCc2ccccc2)C(=O)OCc2ccccc2)cc1` [Compound 1019], the Ki turned out to be 20 nM.

For the compound `COc1ccc(S(=O)(=O)N(CC(C)C)C[C@@H](O)CC(=O)N2CCN(C(=O)OCc3ccccc3)C[C@H]2C(=O)NC(C)(C)C)cc1` [Compound 1031], the Ki turned out to be 1400 nM.

With `COc1ccc(S(=O)(=O)N(CC2CCCC2)C[C@@H](O)CN(CCc2ccccc2)C(=O)c2ccccc2)cc1` [Compound 1026], the Ki came to 20 nM.

As for `COc1ccc(S(=O)(=O)N(CC(C)C)C[C@@H](O)CCN(CCc2ccccc2)C(=O)O[C@H]2CCOC2)cc1` [Compound 1037], the Ki was over 10000 nM.

Regarding `COc1ccc(S(=O)(=O)N(CC2CCCC2)C[C@@H](O)CN(CCCc2ccccc2)C(=O)O[C@H]2CCOC2)cc1` [Compound 1006], the Ki stood at 470 nM.

For `O=C(O[C@H]1CCOC1)N(CCc1ccccc1)C[C@H](O)CN(CC1CCCC1)S(=O)(=O)c1ccc(O)cc1` [Compound 1007], the Ki was 35 nM.

For `COc1ccc(S(=O)(=O)N(CC(C)C)C[C@@H](O)CCN(CC2CCCC2)S(=O)(=O)c2cccc(N)c2)cc1` [Compound 1041], the Ki was 270 nM.

With `COc1ccc(S(=O)(=O)N(CC[C@H](O)CN2CCN(C(=O)OCc3ccccc3)C[C@H]2C(=O)NC(C)(C)C)CC(C)C)cc1` [LXXVI], the Ki came out at 2700 nM.

Turning to `COc1ccc(S(=O)(=O)N(CC2CCCC2)C[C@@H](O)CN(CCc2cccnc2)C(=O)OCc2cccnc2)cc1` [Compound 1025], the Ki turned out to be 270 nM.

For the compound `Nc1cccc(S(=O)(=O)N(CC2CCCC2)C[C@@H](O)CN(CCc2ccccc2)C(=O)O[C@H]2CCOC2)c1` [Compound 1009], the Ki is 120 nM.

Regarding `COc1ccc(S(=O)(=O)N(CC(C)C)CC(O)CNc2ccccc2C(=O)NC(C)(C)C)cc1` (stereo not drawn) [Compound 1002], the Ki stood at 16000 nM.

As to `COc1ccc(S(=O)(=O)N(CC(C)C)C[C@@H](O)CCN2CCCC[C@H]2C(=O)NC(C)(C)C)cc1` [Compound 1033], the Ki came to 1600 nM.

Consider `COc1ccc(S(=O)(=O)N(CC(C)C)C[C@@H](O)CCN(CC2CCCC2)C(=O)O[C@H]2CCOC2)cc1` [Compound 1039], for which the Ki is over 3000 nM.

In the case of `COc1ccc(S(=O)(=O)N(CC2CCCC2)C[C@@H](O)CN(CCc2ccccc2)C(C)=O)cc1` [Compound 1047], the inhibition constant Ki worked out at 1600 nM.

As for `CC(C)CN(C[C@@H](O)CCN(CC1CCCC1)S(=O)(=O)c1ccc(O)cc1)S(=O)(=O)c1ccc(O)cc1` [XLV], the Ki was 160 nM.

For `COc1ccc(S(=O)(=O)N(CC2CCCC2)C[C@@H](O)CN(CCC(C)C)C(=O)O[C@H]2CCOC2)cc1` [Compound 1003], the Ki was determined as 1200 nM.

In the case of `COc1ccc(S(=O)(=O)N(CC2CCCC2)C[C@H](O)CN(CCc2ccccc2)C(=O)O[C@H]2CCOC2)cc1` [Compound 1000], the Ki stood at 100 nM.

On to `O=C(OCc1cccnc1)N(CCc1ccccc1)C[C@H](O)CN(CC1CCCC1)S(=O)(=O)c1ccccc1` [Compound 1023], for which the Ki was 52 nM.

For `COc1ccc(S(=O)(=O)N(CC[C@H](O)CN2CCCC[C@H]2C(=O)NC(C)(C)C)CC(C)C)cc1` [XLVIII], the Ki worked out at 3300 nM.

With `COc1ccc(S(=O)(=O)N(CC(C)C)C[C@H](O)CCN(CCc2ccccc2)C(=O)O[C@H]2CCOC2)cc1` [Compound 1038], the Ki is over 10000 nM.

`COc1ccc(S(=O)(=O)N(CC2CCCC2)C[C@@H](O)CN(CCc2ccc(O)cc2)C(=O)O[C@H]2CCOC2)cc1` [Compound 1016]: the inhibitory constant (Ki) stood at 75 nM.

For `COc1ccc(S(=O)(=O)N(CC2CCCC2)C[C@@H](O)CN(CC(C)C)C(=O)O[C@H]2CCOC2)cc1` [Compound 1004], the Ki was determined as 1300 nM.

As to `COc1ccc(S(=O)(=O)N(CCc2ccccc2)CC[C@H](O)CN(CC(C)C)S(=O)(=O)c2ccc(OC)cc2)cc1` [Compound 1035], the Ki turned out to be 3600 nM.

On to `COc1ccc(S(=O)(=O)N(CC2CCCC2)C[C@@H](O)CN(CCc2ccccc2)C(=O)c2cccc(O)c2C)cc1` [Compound 1024], for which the inhibition constant (Ki) turned out to be 66 nM.

As to `COc1ccc(S(=O)(=O)N(CC2CCCC2)C[C@@H](O)CN(CCc2ccccc2)CC(=O)c2ccccc2)cc1` [Compound 1028], the Ki was determined as 800 nM.

For `COc1ccc(S(=O)(=O)N(CC2CCCC2)C[C@@H](O)CN(CCc2ccccc2)C(=O)Cc2ccccc2)cc1` [Compound 1020], the Ki was 170 nM.

Consider `COc1ccc(S(=O)(=O)N(CC(C)C)C[C@@H](O)CCN(CC(C)C)S(=O)(=O)N(C)C)cc1` [Compound 1034], for which the Ki was determined as 1100 nM.

The assay is the same for the next values; noted with them: read-out: Ki.
As for `COc1ccc(S(=O)(=O)N(CC2CCCC2)C[C@@H](O)CN(CCc2ccccc2)C(=O)O[C@H]2CCOC2)cc1` [Compound 1001], the Ki came to 30 nM.
